Measured values as given in patent publication US20170190671A1, “BIS(ARYL)CATECHOL DERIVATIVES AS HERBICIDES” (E I DU PONT DE NEMOURS AND COMPANY, priority 2014, published 2017).

Assays:
Format in all cases: in vivo
[1] = tested on: blackgrass (Alopecurus myosuroides); assay: Test C preemergence; conditions: Alopecurus myosuroides, pre-emergence, 336 h, preemergence, scale 0 to 100, read-out: Plant response rating, Blackgrass
Summary of the method: (§1)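 Visual ratings (0 none to 100 complete control) were made 13 to 15 days after treatment, relative to controls. Test chemicals, formulated in a non-phytotoxic solvent mixture with surfactant, were applied in the greenhouse preemergence to seeded loam-sand soil or postemergence to plants 2 to 18 cm tall.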

[2] = tested on: yellow nutsedge (Cyperus esculentus); assay: Test C preemergence; conditions: Cyperus, pre-emergence, 336 h, preemergence, scale 0 to 100, read-out: Plant response rating, Nutsedge, Yellow
Summary of the method: as §1

[3] = tested on: oilseed rape (Brassica napus); assay: Test C preemergence; conditions: Brassica napus, pre-emergence, preemergence, scale 0 to 100, read-out: Plant response rating, Oilseed Rape
Summary of the method: as §1

[4] = tested on: galium (catchweed bedstraw, Galium aparine); assay: Test C postemergence; conditions: Galium, post-emergence, 336 h, Postemergence, scale 0 to 100, read-out: Plant response rating, Galium
Summary of the method: as §1

[5] = tested on: corn (Zea mays); assay: Test C postemergence; conditions: Zea mays, post-emergence, 336 h, Postemergence, scale 0 to 100
Summary of the method: as §1

[6] = tested on: Italian ryegrass (Lolium multiflorum); assay: Test C postemergence; conditions: Lolium multiflorum, post-emergence, 336 h, Postemergence, scale 0 to 100, read-out: Plant response rating, Ryegrass, Italian
Summary of the method: as §1

[7] = tested on: wild oat (Avena fatua); assay: Test C postemergence; conditions: Avena fatua, post-emergence, Postemergence, scale 0 to 100, read-out: Plant response rating, Oat, Wild
Summary of the method: as §1

[8] = tested on: blackgrass (Alopecurus myosuroides); assay: Test C postemergence; conditions: Alopecurus myosuroides, post-emergence, 336 h, Postemergence, scale 0 to 100, read-out: Plant response rating, Blackgrass
Summary of the method: as §1

[9] = tested on: yellow nutsedge (Cyperus esculentus); assay: Test C postemergence; conditions: Cyperus, post-emergence, 336 h, Postemergence, scale 0 to 100, read-out: Plant response rating, Nutsedge, Yellow
Summary of the method: as §1

[10] = tested on: chickweed (common chickweed, Stellaria media); assay: Test C postemergence; conditions: Stellaria media, post-emergence, Postemergence, scale 0 to 100, read-out: Plant response rating, Chickweed
Summary of the method: as §1

[11] = tested on: lambsquarters (Chenopodium album); assay: Test C postemergence; conditions: Chenopodium album, post-emergence, 336 h, Postemergence, scale 0 to 100, read-out: Plant response rating, Lambsquarters
Summary of the method: as §1

[12] = tested on: soybean (Glycine max); assay: Test C postemergence; conditions: Glycine max, post-emergence, Postemergence, scale 0 to 100, read-out: Plant response rating, Soybean
Summary of the method: as §1

[13] = tested on: morningglory (Ipomoea coccinea); assay: Test C postemergence; conditions: Ipomoea, post-emergence, 336 h, Postemergence, scale 0 to 100, read-out: Plant response rating, Morningglory
Summary of the method: as §1

[14] = tested on: winter wheat (Triticum aestivum); assay: Test C postemergence; conditions: Triticum aestivum, post-emergence, 336 h, Postemergence, scale 0 to 100, read-out: Plant response rating, Wheat
Summary of the method: as §1

[15] = tested on: large (Lg) crabgrass (Digitaria sanguinalis); assay: Test C postemergence; conditions: Digitaria sanguinalis, post-emergence, 336 h, Postemergence, scale 0 to 100, read-out: Plant response rating, Crabgrass, Large
Summary of the method: as §1

[16] = tested on: barnyardgrass (Echinochloa crus-galli); assay: Test C postemergence; conditions: Echinochloa crus-galli, post-emergence, Postemergence, scale 0 to 100, read-out: Plant response rating, Barnyardgrass
Summary of the method: as §1

[17] = tested on: johnsongrass (Sorghum halepense); assay: Test C postemergence; conditions: Sorghum halepense, post-emergence, 336 h, Postemergence, scale 0 to 100, read-out: Plant response rating, Johnsongrass
Summary of the method: as §1

[18] = tested on: oilseed rape (Brassica napus); assay: Test C postemergence; conditions: Brassica napus, post-emergence, Postemergence, scale 0 to 100, read-out: Plant response rating, Oilseed Rape
Summary of the method: as §1

[19] = tested on: giant foxtail (Setaria faberii); assay: Test C postemergence; conditions: Setaria faberi, post-emergence, 336 h, Postemergence, scale 0 to 100, read-out: Plant response rating, Foxtail, Giant
Summary of the method: as §1

[20] = tested on: velvetleaf (Abutilon theophrasti); assay: Test C postemergence; conditions: Abutilon theophrasti, post-emergence, Postemergence, scale 0 to 100, read-out: Plant response rating, Velvetleaf
Summary of the method: as §1

[21] = tested on: ragweed (common ragweed, Ambrosia elatior); assay: Test C postemergence; conditions: Ambrosia artemisiifolia, post-emergence, 336 h, Postemergence, scale 0 to 100, read-out: Plant response rating, Ragweed
Summary of the method: as §1

[22] = tested on: kochia (Kochia scoparia); assay: Test C postemergence; conditions: Bassia scoparia, post-emergence, Postemergence, scale 0 to 100, read-out: Plant response rating, Kochia
Summary of the method: as §1

N#Cc1cccc(Oc2ncc(Cl)cn2)c1Oc1ncc(Cl)cn1 [Compound 3, 2,3-bis[(5-chloro-2-pyrimidinyl)oxy]benzonitrile]
95%: plant injury at 62 g/ha ([3]; 62 g ai/ha) | plant injury at 125 g/ha ([3]; 125 g ai/ha) | plant injury at 250 g/ha ([3]; 250 g ai/ha) | pest or weed control at 125 g/ha ([4]; 125 g ai/ha) | pest or weed control at 250 g/ha ([4]; 250 g ai/ha) | pest or weed control at 250 g/ha ([10]; 250 g ai/ha) | pest or weed control at 62 g/ha ([11]; 62 g ai/ha) | pest or weed control at 125 g/ha ([11]; 125 g ai/ha) | plant injury at 125 g/ha ([12]; 125 g ai/ha) | plant injury at 250 g/ha ([12]; 250 g ai/ha) | pest or weed control at 125 g/ha ([22]; 125 g ai/ha) | pest or weed control at 250 g/ha ([22]; 250 g ai/ha)
98%: pest or weed control at 250 g/ha ([13]; 250 g ai/ha)
90%: pest or weed control at 62 g/ha ([1]; 62 g ai/ha) | pest or weed control at 125 g/ha ([1]; 125 g ai/ha) | plant injury at 31 g/ha ([3]; 31 g ai/ha) | pest or weed control at 125 g/ha ([10]; 125 g ai/ha) | plant injury at 62 g/ha ([12]; 62 g ai/ha) | pest or weed control at 62 g/ha ([13]; 62 g ai/ha) | pest or weed control at 125 g/ha ([13]; 125 g ai/ha) | pest or weed control at 31 g/ha ([22]; 31 g ai/ha) | pest or weed control at 62 g/ha ([22]; 62 g ai/ha)
15%: pest or weed control at 62 g/ha ([2]; 62 g ai/ha) | pest or weed control at 31 g/ha ([7]; 31 g ai/ha) | plant injury at 250 g/ha ([14]; 250 g ai/ha) | pest or weed control at 125 g/ha ([15]; 125 g ai/ha) | pest or weed control at 31 g/ha ([17]; 31 g ai/ha) | pest or weed control at 62 g/ha ([17]; 62 g ai/ha) | pest or weed control at 125 g/ha ([17]; 125 g ai/ha) | pest or weed control at 62 g/ha ([19]; 62 g ai/ha) | pest or weed control at 125 g/ha ([19]; 125 g ai/ha)
80%: pest or weed control at 250 g/ha ([20]; 250 g ai/ha)
55%: pest or weed control at 125 g/ha ([2]; 125 g ai/ha) | pest or weed control at 62 g/ha ([21]; 62 g ai/ha)
0%: pest or weed control at 31 g/ha ([9]; 31 g ai/ha) | pest or weed control at 62 g/ha ([9]; 62 g ai/ha) | plant injury at 31 g/ha ([14]; 31 g ai/ha) | plant injury at 62 g/ha ([14]; 62 g ai/ha)
60%: pest or weed control at 250 g/ha ([16]; 250 g ai/ha) | plant injury at 62 g/ha ([18]; 62 g ai/ha) | pest or weed control at 250 g/ha ([19]; 250 g ai/ha) | pest or weed control at 125 g/ha ([21]; 125 g ai/ha)
10%: Corn plant response rating (crop injury, 0 = no effect, 100 = complete kill) at 31 g/ha ([5]; 31 g ai/ha) | plant injury at 125 g/ha ([14]; 125 g ai/ha) | pest or weed control at 31 g/ha ([15]; 31 g ai/ha) | pest or weed control at 62 g/ha ([15]; 62 g ai/ha) | pest or weed control at 62 g/ha ([16]; 62 g ai/ha)
50%: pest or weed control at 31 g/ha ([4]; 31 g ai/ha) | pest or weed control at 31 g/ha ([10]; 31 g ai/ha) | pest or weed control at 250 g/ha ([17]; 250 g ai/ha) | plant injury at 31 g/ha ([18]; 31 g ai/ha) | pest or weed control at 31 g/ha ([21]; 31 g ai/ha)
30%: pest or weed control at 62 g/ha ([7]; 62 g ai/ha) | pest or weed control at 125 g/ha ([8]; 125 g ai/ha) | pest or weed control at 250 g/ha ([8]; 250 g ai/ha)
85%: pest or weed control at 62 g/ha ([10]; 62 g ai/ha) | pest or weed control at 31 g/ha ([11]; 31 g ai/ha) | plant injury at 31 g/ha ([12]; 31 g ai/ha) | pest or weed control at 31 g/ha ([13]; 31 g ai/ha) | pest or weed control at 250 g/ha ([15]; 250 g ai/ha) | plant injury at 250 g/ha ([18]; 250 g ai/ha) | pest or weed control at 250 g/ha ([21]; 250 g ai/ha)
100%: pest or weed control at 250 g/ha ([11]; 250 g ai/ha)
75%: Corn plant response rating (crop injury, 0 = no effect, 100 = complete kill) at 250 g/ha ([5]; 250 g ai/ha)
5%: pest or weed control at 31 g/ha ([2]; 31 g ai/ha) | pest or weed control at 31 g/ha ([6]; 31 g ai/ha) | pest or weed control at 62 g/ha ([6]; 62 g ai/ha) | pest or weed control at 125 g/ha ([6]; 125 g ai/ha) | pest or weed control at 125 g/ha ([9]; 125 g ai/ha) | pest or weed control at 31 g/ha ([16]; 31 g ai/ha) | pest or weed control at 31 g/ha ([19]; 31 g ai/ha)
20%: pest or weed control at 31 g/ha ([8]; 31 g ai/ha) | pest or weed control at 62 g/ha ([8]; 62 g ai/ha) | pest or weed control at 125 g/ha ([16]; 125 g ai/ha)
70%: pest or weed control at 31 g/ha ([1]; 31 g ai/ha) | pest or weed control at 62 g/ha ([4]; 62 g ai/ha) | plant injury at 125 g/ha ([18]; 125 g ai/ha) | pest or weed control at 62 g/ha ([20]; 62 g ai/ha) | pest or weed control at 125 g/ha ([20]; 125 g ai/ha)
35%: Corn plant response rating (crop injury, 0 = no effect, 100 = complete kill) at 62 g/ha ([5]; 62 g ai/ha) | pest or weed control at 250 g/ha ([6]; 250 g ai/ha) | pest or weed control at 125 g/ha ([7]; 125 g ai/ha) | pest or weed control at 250 g/ha ([7]; 250 g ai/ha) | pest or weed control at 250 g/ha ([9]; 250 g ai/ha) | pest or weed control at 31 g/ha ([20]; 31 g ai/ha)
